Assay results published in article PMC9220351, “Evaluation of a Conformationally Constrained Indole Carboxamide as a Potential Efflux Pump Inhibitor in Pseudomonas aeruginosa” (Antibiotics, 2022).
Values after ≈ are worked out from the molar mass of the structure shown. Like-named read-outs stand apart in the source and are kept apart here.

Experiments:
[1] = tested on: P. aeruginosa mutants EPIR1S, EPIR9S, EPIR20L, EPIR43; experiment: MIC of antimicrobials in TXA09155-resistant mutants; format: cell-based, Pseudomonas aeruginosa
Method: All resistant colonies were verified by determining the MIC to TXA09155. […] This two-component system regulates the expression of more than 100 genes in P. aeruginosa, including genes that code for efflux components (mexX), and plays a role in the resistance to cationic antimicrobial peptides and aminoglycoside antibiotics.
(§1) MIC assays were performed as described previously.

[2] = tested on: P. aeruginosa ATCC 27853; experiment: MIC / antibiotic potentiation assay, wild-type strain; conditions: for Antibiotic MIC in Presence of TXA09155 at a Concentration of 3.13: TXA09155 3.13 μg/mL; for Antibiotic MIC in Presence of TXA09155 at a Concentration of 25: TXA09155 25 μg/mL; for Emax: ratio between MIC without EPI and MIC in the presence of a maximal potentiating concentration of EPI (TXA09155); for antibiotic potentiated by TXA09155 up to x-fold: TXA09155 25 to 3.13 µg/mL
[3] = tested on: P. aeruginosa K767 (WT); experiment: MIC assay, strain K767; format: cell-based, Pseudomonas aeruginosa; conditions: antibiotic alone; for MIC: Pseudomonas aeruginosa, read-out: MICs K767 (WT)
Source text: (§2) P. aeruginosa ATCC 27853 was obtained from the American Type Culture Collection (ATCC; Manassas, VA, USA). P. aeruginosa multidrug-resistant isolates were obtained from the CDC and FDA Antibiotic Resistance Isolate Bank (Atlanta, GA, USA). P. aeruginosa DA7232 (gyrA-T83I, parC-S80L) was a kind gift from Prof. Dan I. Andersson, Uppsala University, Uppsala, Sweden, and has been characterized elsewhere. P. aeruginosa strains K767 (WT), K1455 (mexAB-oprM overexpressed), K2415 (mexXY-oprM overexpressed), and K3698 (oprM∆) were obtained from Prof. Keith Poole, Queen’s University, Kingston, Ontario, Canada and have been characterized elsewhere. Bacterial cells were grown in cation-adjusted Mueller Hinton (CAMH) media, brain heart infusion broth (BHI), or tryptic soy agar (TSA) plates were all obtained from Becton, Dickinson, and Company (BD; Franklin Lakes, NJ, USA). Aztreonam, ceftazidime, moxifloxacin, levofloxacin, minocycline, tigecycline, chloramphenicol, nitrocefin, and imipenem were purchased from TOKU-E (Bellingham, WA, USA). Azithromycin was purchased from Tokyo Chemical Industry (Portland, OR, USA). Cotrimoxazole was purchased from Toronto Research Chemicals (Toronto, ON, Canada). Doxycycline and polymyxin B were purchased from Sigma-Aldrich (St. Louis, MO, USA). Ethidium bromide (EtBr) and glucose were purchased from VWR (Radnor, PA, USA). MC-04,124 and TXA01182 were synthesized at TAXIS Pharmaceuticals. Carbonyl cyanide 3-chlorophenylhydrazone (CCCP) was purchased from Enzo Life Sciences (Farmingdale, NY, USA). DiOC2 (3) and propidium iodide were obtained from Thermo Fisher Scientific (Waltham, MA, USA).
as §1

[4] = tested on: P. aeruginosa K1455 (mexAB-oprM overexpressed); experiment: microbe, parasite or virus in culture; format: cell-based, Pseudomonas aeruginosa; conditions: for MIC: Pseudomonas aeruginosa, read-out: MICs K1455 (↑mexAB-oprM); for MIC Ratios K1455 (↑mexAB-oprM)/K3698 (∆oprM): effect of pump deletion
Source text: as §2, §1

[5] = tested on: P. aeruginosa K2415 (mexXY-oprM overexpressed); experiment: MIC / potentiation assay, strain K2415; format: cell-based, Pseudomonas aeruginosa; conditions: for MIC: Pseudomonas aeruginosa, read-out: MICs K2415 (↑mexXY-oprM)
Source text: as §2, §1

[6] = tested on: P. aeruginosa K3698 (∆oprM); experiment: MIC / potentiation assay, strain K3698; format: cell-based, Pseudomonas aeruginosa; conditions: for MIC: Pseudomonas aeruginosa, read-out: MICs K3698 (∆oprM)
Source text: as §2, with “Aztreonam, ceftazidime, moxifloxacin, levofloxacin, minocycline, tigecycline, chloramphenicol, nitrocefin, and imipenem were purchased from TOKU-E (Bellingham, WA, USA).” left out, “Cotrimoxazole was purchased from Toronto Research Chemicals (Toronto, ON, Canada). Doxycycline and polymyxin B were purchased from Sigma-Aldrich (St. Louis, MO, USA).” left out
as §1

[7] = Pseudomonas aeruginosa, strain EPIR1S (phoQ-L175R)
[8] = Pseudomonas aeruginosa, strain EPIR20L (phoQ-H248D)
[9] = Pseudomonas aeruginosa, ATCC27853, read-out: Antibiotic MIC in Presence of TXA09155 at a Concentration of 0
[10] = Pseudomonas aeruginosa, ATCC27853, read-out: MICs, Lack of EPI
[11] = Pseudomonas aeruginosa, strain EPIR9S (phoQ-L175R)

| Compound | MIC [1, 7] [µg/mL] | MIC [1, 8] [µg/mL] | MIC [2, 9] [µg/mL] | Antibiotic MIC in Presence of TXA09155 at a Concentration of 3.13 [2] [µg/mL] | Antibiotic MIC in Presence of TXA09155 at a Concentration of 25 [2] [µg/mL] | Emax [2] | MIC [3] [µg/mL] | MIC [4] [µg/mL] | MIC [5] [µg/mL] | Antibiotic MIC in Presence of TXA09155 at a Concentration of 12.5 [2] [µg/mL] | further results |
| --- | --- | --- | --- | --- | --- | --- | --- | --- | --- | --- | --- |
| NCC[C@H](O)C(=O)N[C@@H]1C[C@H](N)[C@@H](O[C@H]2O[C@H](CN)[C@@H](O)[C@H](O)[C@H]2O)[C@H](O)[C@H]1O[C@H]1O[C@H](CO)[C@@H](O)[C@H](N)[C@H]1O [AMK, amikacin] | 8 | 8 |  |  |  |  |  |  |  |  |  |
| CC[C@H]1OC(=O)[C@H](C)[C@@H](O[C@H]2C[C@@](C)(OC)[C@@H](O)[C@H](C)O2)[C@H](C)[C@@H](O[C@@H]2O[C@H](C)C[C@H](N(C)C)[C@H]2O)[C@](C)(O)C[C@@H](C)CN(C)[C@H](C)[C@@H](O)[C@]1(C)O [AZM, azithromycin] | 64 | 64 |  |  |  |  |  |  |  |  | MIC ([2]; ATCC 27853, parent strain): 64 µg/mL |
| C[C@H]1[C@H](NC(=O)/C(=N\OC(C)(C)C(=O)O)c2csc(N)n2)C(=O)N1S(=O)(=O)O [Aztreonam] |  |  | 8 | 4 | 0.25 | 32 |  |  |  |  |  |
| CC(C)(O/N=C(\C(=O)N[C@@H]1C(=O)N2C(C(=O)[O-])=C(C[n+]3ccccc3)CS[C@H]12)c1csc(N)n1)C(=O)O [CAZ, ceftazidime] | 2 | 2 |  |  |  |  |  |  |  |  | MIC ([2]; ATCC 27853, parent strain): 2 µg/mL |
| CO/N=C(\C(=O)N[C@@H]1C(=O)N2C(C(=O)[O-])=C(C[n+]3cccc4c3CCC4)CS[C@H]12)c1csc(N)n1 [Cefpirome] |  |  | 8 | 4 | 0.5 | 16 | 2 (≈ 3.89 µM) | 8 (≈ 15.5 µM) | 8 | 0.5 | MIC Ratios K1455 (↑mexAB-oprM) ± TXA09155 [4]: 8; MIC Ratios K1455 (↑mexAB-oprM)/K3698 (∆oprM) ([4]; antibiotic alone): 4; MIC Ratios K2415 (↑mexXY-oprM) ± TXA09155 [5]: 8; MIC [6]: 0.5 µg/mL; MIC Ratios K3698 (∆oprM) ± TXA09155 [6]: 2; antibiotic potentiated by TXA09155 up to x-fold [2]: up to 16 fold; FICindex ([2]; sum of the FICindex of antibiotic and TXA09155, <0.5 synergistic): 0.25 |
| O=C(N[C@H](CO)[C@H](O)c1ccc([N+](=O)[O-])cc1)C(Cl)Cl [Chloramphenicol] |  |  | > 256 | >256 | 2 | >128 | 128 (≈ 396 µM) | > 256 | 128 | 4 | MIC [6]: 8 µg/mL; MIC [2, 10]: > 256 µg/mL |
| C[C@H]1c2cccc(O)c2C(=O)C2=C(O)[C@]3(O)C(=O)C(C(N)=O)=C(O)[C@@H](N(C)C)[C@@H]3[C@@H](O)[C@@H]21 [Doxycycline] | 16 | 16 | 32 | 16 |  |  | 32 (≈ 72 µM) | ≥ 256 | 32 |  | MIC [1, 11]: 16 µg/mL; MIC [2, 10]: 32 µg/mL |
| C[C@@H](O)[C@H]1C(=O)N2C(C(=O)O)=C(SCCN=CN)C[C@H]12 [Imipenem] |  |  | 2 | 2 | 2 | 1 | 2 (≈ 6.68 µM) | 1 (≈ 3.34 µM) | 1 | 2 | MIC Ratios K1455 (↑mexAB-oprM) ± TXA09155 [4]: 1; MIC Ratios K1455 (↑mexAB-oprM)/K3698 (∆oprM) ([4]; antibiotic alone): 1; MIC Ratios K2415 (↑mexXY-oprM) ± TXA09155 [5]: 1; MIC [6]: 2 µg/mL; MIC Ratios K3698 (∆oprM) ± TXA09155 [6]: 1; antibiotic potentiated by TXA09155 up to x-fold [2]: not potentiated |
| C[C@@H](O)[C@H]1C(=O)N2C(C(=O)O)=C(S[C@@H]3CN[C@H](C(=O)N(C)C)C3)[C@H](C)[C@H]12 [MEM, meropenem] | 2 | 2 |  |  |  |  |  |  |  |  | MIC [1, 11]: 1 µg/mL |
| CN(C)c1ccc(O)c2c1C[C@H]1C[C@H]3[C@H](N(C)C)C(O)=C(C(N)=O)C(=O)[C@@]3(O)C(O)=C1C2=O [Minocycline] |  |  | 32 | 16 | 0.125 | 256 | 64 (≈ 140 µM) | > 256 | 32 | 0.25 | MIC [6]: 1 µg/mL; MIC [2, 10]: 32 µg/mL |
| COc1c(N2C[C@@H]3CCCN[C@@H]3C2)c(F)cc2c(=O)c(C(=O)O)cn(C3CC3)c12 [Moxifloxacin] |  |  | 2 | 2 | 0.016 |  |  |  |  | 0.031 | MIC [2, 10]: 2 µg/mL |
| CN(C)c1cc(NC(=O)CNC(C)(C)C)c(O)c2c1C[C@H]1C[C@H]3[C@H](N(C)C)C(O)=C(C(N)=O)C(=O)[C@@]3(O)C(O)=C1C2=O [TGC, tigecycline] | 8 | 8 |  |  |  |  |  |  |  |  | MIC ([2]; ATCC 27853, parent strain): 8 µg/mL |
| Cotrimoxazole |  |  |  | 256 | 2 | 128 |  |  |  | 4 | MICs K767 (WT) [3]: 64 µg/mL; MICs K1455 (↑mexAB-oprM) ([4]; antibiotic alone): > 256 µg/mL; MICs K2415 (↑mexXY-oprM) ([5]; antibiotic alone): 64 µg/mL; MICs K3698 (∆oprM) ([6]; antibiotic alone): 4 µg/mL; Antibiotic MIC in Presence of TXA09155 at a Concentration of 0 ([2]; TXA09155 0 μg/mL): 256 µg/mL |
| polymyxin B [PMB] |  |  |  |  |  |  |  |  |  |  | MIC ([1]; strain EPIR1S (phoQ-L175R)): 4 µg/mL; MIC ([1]; strain EPIR9S (phoQ-L175R)): 2 µg/mL; MIC ([1]; strain EPIR20L (phoQ-H248D)): 4 µg/mL; MIC ([1]; strain EPIR43 (ompH-Q127X)): 4 µg/mL; MIC ([2]; ATCC 27853, parent strain): 2 µg/mL |
